From PubChem BioAssay (NCI)
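These data come from cells grown in 96-well plates and exposed to compound for 48 hours at five concentrations. GI50 = concentration required for 50% inhibition of growth. Definition used: TGI = concentration required for complete inhibition of growth.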

Experiments:
Test in all cases: growth of human tumour cells (NCI), 48 h; in the data active = GI50 below about 0.43 µM; inactive = the rest
K-562 leukemia = system: K-562 leukemia
HT29 colon = system: HT29 colon
SR leukemia = system: SR leukemia
HL-60(TB) leukemia = system: HL-60(TB) leukemia
UACC-257 melanoma = system: UACC-257 melanoma
SK-OV-3 ovarian = system: SK-OV-3 ovarian
NCI-H522 lung = system: NCI-H522 lung
DU-145 prostate = system: DU-145 prostate
BT-549 breast = system: BT-549 breast
U251 CNS = system: U251 CNS
MDA-MB-435 = system: MDA-MB-435
ACHN renal = system: ACHN renal
A549 NSCLC = system: A549 NSCLC
OVCAR-4 ovarian = system: OVCAR-4 ovarian
OVCAR-8 ovarian = system: OVCAR-8 ovarian
786-0 renal = system: 786-0 renal
T-47D breast = system: T-47D breast
SK-MEL-5 melanoma = system: SK-MEL-5 melanoma
MDA-MB-231 breast = system: MDA-MB-231 breast
SNB-19 CNS = system: SNB-19 CNS
HCT-15 colon = system: HCT-15 colon
PC-3 prostate = system: PC-3 prostate
UO-31 renal = system: UO-31 renal
CAKI-1 renal = system: CAKI-1 renal
SN12C renal = system: SN12C renal
M14 melanoma = system: M14 melanoma
KM12 colon = system: KM12 colon
HCC-2998 colon = system: HCC-2998 colon
MCF7 breast = system: MCF7 breast
OVCAR-3 ovarian = system: OVCAR-3 ovarian
A498 renal = system: A498 renal
NCI-H460 lung = system: NCI-H460 lung
MOLT-4 leukemia = system: MOLT-4 leukemia
IGROV1 ovarian = system: IGROV1 ovarian
NCI-H23 lung = system: NCI-H23 lung
SW-620 colon = system: SW-620 colon
HOP-62 NSCLC = system: HOP-62 NSCLC
RPMI-8226 leukemia = system: RPMI-8226 leukemia
HOP-92 NSCLC = system: HOP-92 NSCLC
LOX IMVI melanoma = system: LOX IMVI melanoma
NCI-H226 lung = system: NCI-H226 lung
CCRF-CEM leukemia = system: CCRF-CEM leukemia
TK-10 renal = system: TK-10 renal
SF-268 CNS = system: SF-268 CNS
COLO 205 colon = system: COLO 205 colon
RXF 393 renal = system: RXF 393 renal
SK-MEL-2 melanoma = system: SK-MEL-2 melanoma
HCT-116 colon = system: HCT-116 colon
MALME-3M melanoma = system: MALME-3M melanoma
SF-539 CNS = system: SF-539 CNS
NCI/ADR-RES ovarian = system: NCI/ADR-RES ovarian
SK-MEL-28 melanoma = system: SK-MEL-28 melanoma
UACC-62 melanoma = system: UACC-62 melanoma
OVCAR-5 ovarian = system: OVCAR-5 ovarian
HS 578T breast = system: HS 578T breast

COc1cc2ccnc(C=O)c2cc1OC
85.2 µM: TGI (CAKI-1 renal)
24.9 µM: TGI (MDA-MB-435)
98.1 µM: TGI (HOP-62 NSCLC)
14.8 µM: TGI (HCT-116 colon)
63.4 µM: TGI (OVCAR-8 ovarian)
24.2 µM: TGI (OVCAR-4 ovarian)
75.1 µM: TGI (MDA-MB-231 breast)
5.93 µM: TGI (HOP-92 NSCLC)
90.6 µM: TGI (OVCAR-3 ovarian)
42.2 µM: TGI (UO-31 renal)
28.5 µM: TGI (M14 melanoma)
34.8 µM: TGI (RPMI-8226 leukemia)
7.14 µM: TGI (BT-549 breast)
inactive: GI50 (K-562 leukemia) 4.84 µM | GI50 (HT29 colon) 3.3 µM | GI50 (SR leukemia) 0.696 µM | GI50 (HL-60(TB) leukemia) 2.2 µM | GI50 (UACC-257 melanoma) 18.9 µM | GI50 (SK-OV-3 ovarian) > 100 µM | GI50 (NCI-H522 lung) 12.5 µM | GI50 (DU-145 prostate) 4.83 µM | GI50 (BT-549 breast) 2.68 µM | GI50 (U251 CNS) 28.7 µM | GI50 (MDA-MB-435) 2.63 µM | GI50 (ACHN renal) 4.71 µM | GI50 (A549 NSCLC) > 100 µM | GI50 (OVCAR-4 ovarian) 5.11 µM | GI50 (OVCAR-8 ovarian) 5.45 µM | GI50 (786-0 renal) 18.3 µM | GI50 (T-47D breast) 14 µM | GI50 (SK-MEL-5 melanoma) 10.7 µM | GI50 (MDA-MB-231 breast) 6.51 µM | GI50 (SNB-19 CNS) > 100 µM | GI50 (HCT-15 colon) 3.43 µM | GI50 (PC-3 prostate) 23.9 µM | GI50 (UO-31 renal) 3.98 µM | GI50 (CAKI-1 renal) 23 µM | GI50 (SN12C renal) 12.1 µM | GI50 (M14 melanoma) 4.98 µM | GI50 (KM12 colon) 31.9 µM | GI50 (HCC-2998 colon) 23.8 µM | GI50 (MCF7 breast) 3.64 µM | GI50 (OVCAR-3 ovarian) 6.36 µM | GI50 (A498 renal) > 100 µM | GI50 (NCI-H460 lung) > 100 µM | GI50 (MOLT-4 leukemia) 4.52 µM | GI50 (IGROV1 ovarian) 22.8 µM | GI50 (NCI-H23 lung) 24.9 µM | GI50 (SW-620 colon) 4.15 µM | GI50 (HOP-62 NSCLC) 18.2 µM | GI50 (RPMI-8226 leukemia) 3.44 µM | GI50 (HOP-92 NSCLC) 1.18 µM | GI50 (LOX IMVI melanoma) 10.1 µM | GI50 (NCI-H226 lung) 29.9 µM | GI50 (CCRF-CEM leukemia) 3.08 µM | GI50 (TK-10 renal) 6.02 µM | GI50 (SF-268 CNS) 23.5 µM | GI50 (COLO 205 colon) > 100 µM | GI50 (RXF 393 renal) 1.45 µM | GI50 (SK-MEL-2 melanoma) 37.1 µM | GI50 (HCT-116 colon) 1.92 µM | GI50 (MALME-3M melanoma) 14.7 µM | GI50 (SF-539 CNS) 5.65 µM | GI50 (NCI/ADR-RES ovarian) 16 µM | GI50 (SK-MEL-28 melanoma) 12.4 µM | GI50 (UACC-62 melanoma) 6.87 µM | GI50 (OVCAR-5 ovarian) 17 µM | GI50 (HS 578T breast) 23.8 µM
54.8 µM: TGI (ACHN renal)
31.3 µM: TGI (NCI-H522 lung)
22.1 µM: TGI (CCRF-CEM leukemia)
44.1 µM: TGI (TK-10 renal)
5.89 µM: TGI (HL-60(TB) leukemia)
41.4 µM: TGI (MOLT-4 leukemia)
38.1 µM: TGI (UACC-62 melanoma)
23.6 µM: TGI (SK-MEL-5 melanoma)
> 100 µM: TGI (K-562 leukemia) | TGI (HT29 colon) | TGI (SR leukemia) | TGI (UACC-257 melanoma) | TGI (SK-OV-3 ovarian) | TGI (DU-145 prostate) | TGI (U251 CNS) | TGI (A549 NSCLC) | TGI (786-0 renal) | TGI (T-47D breast) | TGI (SNB-19 CNS) | TGI (HCT-15 colon) | TGI (PC-3 prostate) | TGI (SN12C renal) | TGI (KM12 colon) | TGI (HCC-2998 colon) | TGI (MCF7 breast) | TGI (A498 renal) | TGI (NCI-H460 lung) | TGI (IGROV1 ovarian) | TGI (NCI-H23 lung) | TGI (SW-620 colon) | TGI (LOX IMVI melanoma) | TGI (NCI-H226 lung) | TGI (SF-268 CNS) | TGI (COLO 205 colon) | TGI (SK-MEL-2 melanoma) | TGI (MALME-3M melanoma) | TGI (NCI/ADR-RES ovarian) | TGI (SK-MEL-28 melanoma) | TGI (OVCAR-5 ovarian) | TGI (HS 578T breast)
4.98 µM: TGI (RXF 393 renal)
29.7 µM: TGI (SF-539 CNS)
